“Also recorded” adds a separate entry of the source.
Tests used:
atrogin-1 and MuRF-1 [1] = assay: qPCR of atrogin-1 and MuRF-1 in human myotubes; type: cell-based
Protocol: (§1) For quantitative real-time PCR, transcript levels of genes of interest were analyzed using the StepOnePlus real-time PCR system (Applied Biosystems, UK). Total RNA was reverse transcribed to prepare cDNA using AccuPower® RT PreMix (Bioneer Corporation). The obtained cDNA was subjected to real-time PCR according to the manufacturer's instructions with the following changes. PCR was performed in triplicate in a total volume of 20 μL 2× Power SYBR Green PCR Master Mix (Enzynomics, Republic of Korea) containing 200 nM (final concentration) of each specific primer and 1 μL of cDNA synthesized from 1 μg of total RNA. […] Denaturation was performed at 95° C. for 15 s, annealing was performed at 60° C. for 1 min, and extension was performed at 72° C. for 20 s with fluorescence detection at 72° C. after each cycle. After the final cycle, melting point analysis of all samples was performed within the range of 60 to 95° C. using continuous fluorescence detection. […] Results were expressed as relative expression levels for each gene. The synthesized cDNA was amplified by quantitative real-time PCR (qRT-PCR) or standard PCR.
Human-derived myoblasts were purchased from Thermo-Fisher Scientific (USA). […] Myotubes were stained with H&E. After light microscopy analysis of DIC captured images (Olympus CKX41), myotubes were measured using ImageJ 1.48 software (National Institutes of Health, USA).

[2] = test system: Dex-treated C2C12 myotubes; assay: Dex-induced myotube atrophy, myosin heavy chain immunostaining, myotube diameter; type: cell-based, mouse; conditions: 10 μM Dex 24 h
Protocol: (§2) C2C12 murine skeletal muscle myoblasts were obtained from Koram Biotech (Republic of Korea). The cells were maintained in DMEM growth medium supplemented with 10% FBS, 1% penicillin, and streptomycin. When myoblasts proliferated to approximately 90%, they were differentiated into muscle fibers by treating them with DMEM differentiation medium supplemented with 2% HS, 1% penicillin, and streptomycin for 96 hours. Differentiated muscle fibers were treated with 10 μM Dex for 24 hours to induce sarcopenia. To evaluate the degree of differentiation of muscle cells, differentiating myoblasts were treated with the corresponding compound in differentiation medium for 24 or 48 hours.
Muscle fibers were stained using immunochemical staining using myosin heavy chain antibody. Specifically, the muscle fibers were rinsed three times with PBS and then fixed with a 3.7% formaldehyde solution. After rinsing with PBS, a transparency process was performed with 0.2% TritonX-100 solution, and additional rinsing was performed with PBS. They were blocked with 1% bovine serum albumin solution (1% BSA in PBS-T) and incubated with primary antibody overnight at 4° C. After washing with PBS, the secondary antibody was treated for 1 hour. Afterwards, the myotubes were counterstained with 1 μM DAPI in PBS. Fluorescence images of stained myotubes in five different areas were obtained using a DMI 3000 B microscope (Leica, Germany) and analyzed using ImageJ 1.52 software (National Institutes of Health, Bethesda, MD, USA). Myotubes were classified as myosin heavy chain positive cells containing four or more nuclei, and the diameter of muscle fibers containing four or more nuclei was measured.

LC3b, p62 = assay: Western blot of autophagy markers LC3b I, LC3b II and p62 in Dex-treated myotubes; type: cell-based, mouse
Protocol: (§3) C2C12 murine skeletal muscle myoblasts were obtained from Koram Biotech (Republic of Korea). The cells were maintained in DMEM growth medium supplemented with 10% FBS, 1% penicillin, and streptomycin. When myoblasts proliferated to approximately 90%, they were differentiated into muscle fibers by treating them with DMEM differentiation medium supplemented with 2% HS, 1% penicillin, and streptomycin for 96 hours. Differentiated muscle fibers were treated with 10 μM Dex for 24 hours to induce sarcopenia. To evaluate the degree of differentiation of muscle cells, differentiating myoblasts were treated with the corresponding compound in differentiation medium for 24 or 48 hours. The concentration of intracellular protein was measured using the Bradford assay (Bio-Rad, USA, CA), and electrophoresis was performed by loading on 10% and 12% polyacrylamide gels. Afterwards, the separated proteins were transferred to a PVDF membrane, and the primary antibody used was diluted 1:1000 in TBS-T containing 5% skim milk and incubated overnight at 4° C. Secondary antibodies were diluted 1:2000 and incubated for 35 minutes at room temperature (RT). Band intensity was measured using ImageJ 1.52 software (National Institutes of Health, USA), and intracellular protein was normalized to α-tubulin.

[3] = test system: differentiating C2C12 myoblasts; assay: Myogenesis of mouse myotubes differentiated in presence of compound; type: cell-based
Protocol: as §2
The concentration of intracellular protein was measured using the Bradford assay (Bio-Rad, USA, CA), and electrophoresis was performed by loading on 10% and 12% polyacrylamide gels. Afterwards, the separated proteins were transferred to a PVDF membrane, and the primary antibody used was diluted 1:1000 in TBS-T containing 5% skim milk and incubated overnight at 4° C. Secondary antibodies were diluted 1:2000 and incubated for 35 minutes at room temperature (RT). Band intensity was measured using ImageJ 1.52 software (National Institutes of Health, USA), and intracellular protein was normalized to α-tubulin.
as §1, with “Corporation).” for “Corporation). The obtained cDNA was subjected to real-time PCR according to the manufacturer's instructions with the following changes. PCR was performed in triplicate in a total volume of 20 μL 2× Power SYBR Green PCR Master Mix (Enzynomics, Republic of Korea) containing 200 nM (final concentration) of each specific primer and 1 μL of cDNA synthesized from 1 μg of total RNA.”

FoxO3a = assay: Western blot of FoxO3a phosphorylation and Atrogin-1 in Dex-treated myotubes; type: cell-based, mouse
Protocol: as §3

Atrogin-1 and MuRF-1 [4] = assay: qPCR of muscle atrophy regulators in Dex-treated C2C12 myotubes; type: cell-based, mouse
Protocol: as §2
For quantitative real-time PCR, transcript levels of genes of interest were analyzed using the StepOnePlus real-time PCR system (Applied Biosystems, UK). Total RNA was reverse transcribed to prepare cDNA using AccuPower® RT PreMix (Bioneer Corporation). The obtained cDNA was subjected to real-time PCR according to the manufacturer's instructions with the following changes. PCR was performed in triplicate in a total volume of 20 μL 2× Power SYBR Green PCR Master Mix (Enzynomics, Republic of Korea) containing 200 nM (final concentration) of each specific primer and 1 μL of cDNA synthesized from 1 μg of total RNA. PCR amplification consisted of incubating the mixture at 95° C. for 10 minutes, followed by 40 cycles of denaturation, annealing, and extension. Denaturation was performed at 95° C. for 15 s, annealing was performed at 60° C. for 1 min, and extension was performed at 72° C. for 20 s with fluorescence detection at 72° C. after each cycle. After the final cycle, melting point analysis of all samples was performed within the range of 60 to 95° C. using continuous fluorescence detection. Specific cDNA samples were included in each run and used as reference material for comparison between runs. The expression level of GAPDH was used to calculate and normalize the expression levels of all other genes. Results were expressed as relative expression levels for each gene. The synthesized cDNA was amplified by quantitative real-time PCR (qRT-PCR) or standard PCR.

CC(C)OC(=O)C(C(=O)OC(C)C)=C1SC=CS1 [malotilate, Malotilate]
MuRF-1 expression (atrogin-1 and MuRF-1 [1]): significantly reduced
atrogin-1 expression (atrogin-1 and MuRF-1 [1]): significantly reduced
diameter of muscle fibers (C2C12 myotubes) ([2]; zileuton 10 µM, wedelolactone 20 μM (FIGS. 2, 3)): recovered
myotube atrophy in Dex-treated myotubes ([2]; C2C12 myotubes): inhibited the effect of Dex on myotube atrophy
autophagy (LC3b, p62): reduced
expression of p62 (LC3b, p62): increases
ratio of LC3bII to LC3bI (LC3b, p62): decreases
expression of master gene regulators of the myogenic program (Pax7, Myf5, MyoG, Myh2) ([3]; after 24 h of treatment, qPCR): no significant changes
phosphorylation level of Akt ([3]; differentiated myotubes): not significantly altered
expression of differentiation marker Myh2 ([3]; during myogenesis, Western blot): not affected
Atrogin-1 expression (Western blot) (FoxO3a): decrease
FoxO3a phosphorylation levels (FoxO3a; Western blot): increased
Atrogin-1 expression (mRNA, qPCR) (Atrogin-1 and MuRF-1 [4]): inhibited the upregulation; also recorded: decreased
MuRF-1 expression (mRNA, qPCR) (Atrogin-1 and MuRF-1 [4]): inhibited the upregulation; also recorded: decreased
